How the values were obtained:
Experiment in all cases: relative viability (nuclei count vs DMSO), 5 days (fraction); higher = more cells survive
[1] = compound: CCc1c2c(nc3ccc(OC(=O)N4CCC(N5CCCCC5)CC4)cc13)-c1cc3c(c(=O)n1C2)COC(=O)[C@]3(O)CC [Irinotecan] + CCNC(=O)c1noc(-c2cc(C(C)C)c(O)cc2O)c1-c1ccc(CN2CCOCC2)cc1 [Luminespib] (partner 0.01 µM)
Procedure, shortened: (§1)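 Cells from lung cancer lines were seeded into 1536-well plates and, one day later, dosed by pin tool. Treatments were either a single drug or a fixed dose of an anchor drug with five library-drug doses (not always all listed) in √10 steps. After 5 days, nuclei were stained in a one-step fixation (final 0.05% Triton X-100, 1% formaldehyde, 1 ug/ml Hoechst) and counted on 4× images, and relative viability is the treated-to-vehicle nuclei ratio, as the median of duplicate plates.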

[2] = compound: Cn1cc(-c2cnc3ccc4ccc(CS(=O)(=O)NCc5ccccn5)cc4c(=O)c3c2)cn1 [MK-8033] + N=C(N)NC(=N)NCCc1ccccc1 [Phenformin] (partner 250 µM)
Procedure, shortened: as §1

[3] = compound: Cn1cc(-c2cnc3ccc4ccc(CS(=O)(=O)NCc5ccccn5)cc4c(=O)c3c2)cn1 [MK-8033] + C[C@@H](Oc1cc(-c2cnn(C3CCNCC3)c2)cnc1N)c1c(Cl)ccc(F)c1Cl [Crizotinib] (partner 1 µM)
Procedure, shortened: as §1

[4] = compound: Cn1cc(-c2cnc3ccc4ccc(CS(=O)(=O)NCc5ccccn5)cc4c(=O)c3c2)cn1 [MK-8033] + CCNC(=O)c1noc(-c2cc(C(C)C)c(O)cc2O)c1-c1ccc(CN2CCOCC2)cc1 [Luminespib] (partner 0.01 µM)
Procedure, shortened: as §1

Row | Cell Line | relative viability ([1]; first compound 0.6325 µM) | relative viability ([1]; first compound 2 µM) | relative viability ([1]; first compound 6.325 µM) | relative viability ([1]; first compound 20 µM) | relative viability ([2]; first compound 0.02 µM) | relative viability ([2]; first compound 0.06325 µM) | relative viability ([2]; first compound 0.2 µM) | relative viability ([2]; first compound 0.6325 µM) | relative viability ([2]; first compound 2 µM) | relative viability ([3]; first compound 0.02 µM) | relative viability ([3]; first compound 0.06325 µM) | relative viability ([3]; first compound 0.2 µM) | relative viability ([3]; first compound 0.6325 µM) | relative viability ([3]; first compound 2 µM) | relative viability ([4]; first compound 0.02 µM) | relative viability ([4]; first compound 0.06325 µM) | relative viability ([4]; first compound 0.2 µM) | relative viability ([4]; first compound 0.6325 µM) | relative viability ([4]; first compound 2 µM)
1 | H3255 | 0.435 | 0.707 | 0.385 | 0.448 | 0.341 | 0.364 | 0.335 | 0.326 | 0.37 | 0.951 | 0.759 | 0.775 | 0.625 | 0.787 | 0.864 | 0.737 | 0.834 | 0.896 | 0.916
2 | NCI-H2009 | 0.863 | 0.486 | 0.25 | 0.252 | 0.524 | 0.476 | 0.456 | 0.482 | 0.463 | 1.08 | 1.07 | 0.579 | 1.11 | 1.03 | 0.987 | 0.921 | 0.978 | 0.999 | 1
3 | NCI-H460 | 0.019 | 0.0388 | 0.0428 | 0.047 | 0.543 | 0.486 | 0.506 | 0.542 | 0.491 | 0.949 | 0.793 | 0.879 | 0.822 | 0.844 | 0.0295 | 0.038 | 0.0269 | 0.0415 | 0.0328
4 | COR-L 105 | 0.578 | 0.677 | 0.421 | 0.411 | 0.523 | 0.395 | 0.463 | 0.499 | 0.476 | 0.797 | 0.696 | 0.917 | 0.861 | 0.802 | 0.552 | 0.79 | 0.774 | 0.616 | 0.677
5 | BEN | 0.231 | 0.374 | 0.176 | 0.294 | 0.288 | 0.239 | 0.269 | 0.233 | 0.255 | 0.895 | 0.763 | 0.838 | 0.89 | 0.773 | 0.382 | 0.419 | 0.331 | 0.295 | 0.455
6 | NCI-H1993 | 0.784 | 0.745 | 0.667 | 1.58 | 0.591 | 0.469 | 0.497 | 0.537 | 0.488 | 0.734 | 0.658 | 0.836 | 0.668 | 0.819 | 0.733 | 0.838 | 0.827 | 0.964 | 0.73
7 | NCI-H838 | 0.23 | 0.262 | 0.213 | 0.266 | 0.622 | 0.572 | 0.524 | 0.555 | 0.543 | 0.807 | 0.757 | 0.884 | 0.804 | 0.787 | 0.248 | 0.292 | 0.335 | 0.296 | 0.273
8 | NCI-H1755 | 0.433 | 0.415 | 0.299 | 0.241 | 0.603 | 0.572 | 0.605 | 0.682 | 0.653 | 0.811 | 0.782 | 0.878 | 0.847 | 0.803 | 0.371 | 0.387 | 0.411 | 0.282 | 0.467
